Source: patent publication US12415785B2, “Compound modulators of sting” (CTXT PTY LTD, priority 2019, dated 2025)
Where two headings read alike, the source gives them in different places.

Legend:
human STING (HAQ) = human STING (HAQ) (Homo sapiens, UniProt Q86WV6, G230A/H232R/R293Q); test: Differential scanning fluorimetry (DSF), huSTING (HAQ); format: binding; settings: read-out: DSF huSTING (HAQ) ΔTm (° C.)
Procedure: (§1) Biophysical experiments were performed with three different recombinant human STING protein variants designated according to allelic nomenclature of Yi et al., (2013). […] These were ligated into a modified pET43a E. coli expression vector designed to encode N-terminal His tag followed by tobacco etch virus protease (TEV) cleavage site and a STING gene sequence. The resulting protein sequences for the three allelic variants are listed below: […] Cultures were then cooled to 16° C. and protein expression induced by the addition of isopropyl β-D-1-thiogalactopyranoside to a final concentration of 0.5 mM and the cultures shaken overnight for further 16 hours. Following expression, cell cultures were centrifuged at 5000×g for 20 min and cell pellet stored frozen at −70° C. Protein purification was initiated by thawing the cell pellet in Lysis buffer (25 mM Tris-HCl pH 8.0, 300 mM NaCl, 5 mM DTT, 2 mM MgCl2, 10 mM imidazole, 0.5 mg/ml lysozyme, benzonase endonuclease [EMD Millipore], 1 mM PMSF, complete protease inhibitor tablets EDTA-free [Roche]) using a ratio of 7 ml of buffer per 1 g of cells. Cells were further lysed by 3 passes through an ice cooled Avestin C5 cell crusher and then centrifuged at 48,000×g at 4° C. […] The IMAC column was then sequentially washed with IMAC Wash buffer 1 and IMAC Wash buffer 2 (25 mM Tris-HCl pH 8.0, 300 mM NaCl, 5 mM DTT, 20 mM Imidazole) and bound His-TEV-hSTING protein eluted with IMAC Elution buffer (25 mM Tris-HCl pH 8.0, 300 mM NaCl, 5 mM DTT, 250 mM Imidazole). […] Differential scanning fluorimetry (DSF) is a rapid screening method for identifying low-molecular-weight ligands that bind and, in doing so, stabilize (or sometimes destabilize) purified proteins (Niesen 2007). DSF monitors thermal unfolding of protein in the presence of a fluorescent dye and is typically performed using a real-time PCR instrument. The temperature at which a protein unfolds is measured by an increase in the fluorescence of a dye with affinity for hydrophobic parts of the protein that are gradually being exposed during unfolding. The fluorescence of the dye is quenched in aqueous environments, but when the dye associates with hydrophobic sites on unfolded protein, its fluorescence increases. The fluorescence intensity is plotted as a function of the temperature, generating a sigmoidal curve that can be described by a two-state transition. The inflection point of the transition curve (Tm) is calculated using simple equations such as that of Boltzmann. Thermal stability of STING protein (with and without bound ligand) was measured using previously described methodology (Seabrook & Newman, 2013), with samples tested in triplicate using 96-well PCR microplate (AB Gene, ABGAB-0600/W). […] Sealed plates were placed into Bio-Rad CFX96/C1000 thermocycler and FRET scanning mode (λ^excitation of 490 nm and reads at a λ^emission of 570 nm). Melting curves were recorded from 20° C. to 100° C. in 0.5° C. increments every 30 seconds with a read at each increment. Data were analysed using “Meltdown analysis” protocol described by Rosa (2015).

human STING (WT) = human STING (WT) (Homo sapiens (Human), UniProt Q86WV6, H232R); test: Differential scanning fluorimetry (DSF), huSTING (WT); format: binding; settings: for ΔTm at 100 µM: read-out: DSF huSTING (WT) ΔTm (° C.)
Chain of human STING (WT) (Q86WV6 other isoform, or with tags, fused parts or gaps, stated change not applied): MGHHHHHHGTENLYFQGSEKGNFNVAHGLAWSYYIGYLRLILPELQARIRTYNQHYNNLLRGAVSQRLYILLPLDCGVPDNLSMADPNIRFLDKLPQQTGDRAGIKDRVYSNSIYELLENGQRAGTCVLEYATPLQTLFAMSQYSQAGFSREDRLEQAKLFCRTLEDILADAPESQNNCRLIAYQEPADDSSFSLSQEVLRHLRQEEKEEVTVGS
Procedure: as §1

[1] = 2 μM protein, compound 100 μM, Tm with ligand minus Tm of protein alone (1% DMSO)

Chain of human STING (HAQ) (Q86WV6 whole entry G230A/H232R/R293Q, looked up): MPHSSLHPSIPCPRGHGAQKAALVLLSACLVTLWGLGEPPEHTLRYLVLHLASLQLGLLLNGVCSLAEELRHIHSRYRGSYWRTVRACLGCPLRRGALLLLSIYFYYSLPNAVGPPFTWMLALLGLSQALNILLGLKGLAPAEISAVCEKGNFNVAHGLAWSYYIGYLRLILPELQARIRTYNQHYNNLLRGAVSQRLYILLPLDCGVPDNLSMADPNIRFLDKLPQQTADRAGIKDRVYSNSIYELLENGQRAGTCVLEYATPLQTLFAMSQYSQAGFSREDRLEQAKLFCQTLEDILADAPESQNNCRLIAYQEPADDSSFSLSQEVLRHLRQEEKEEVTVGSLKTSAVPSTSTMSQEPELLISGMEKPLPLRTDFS

| ΔTm at 100 µM (human STING (HAQ); [1]) | ΔTm at 100 µM (human STING (WT); [1]) | DSF huSTING (WT) ΔTm (° C.) (human STING (WT); [1]) | SMILES | ΔTm at 100 µM (human STING (HAQ)) | ΔTm at 100 µM (human STING (WT)) |
| --- | --- | --- | --- | --- | --- |
| 2.14 °C | 0.29 °C | – | COc1c(C(N)=O)ccc2c1nc(-c1cnccc1C(=O)O)n2CCn1c(-c2cnccc2C(=O)O)nc2c(OC)c(C(N)=O)ccc21 [Example 30, 3,3′-(Ethane-1,2-diylbis(5-carbamoyl-4-methoxy-1H-benzo[d]imidazole-1,2-diyl))diisonicotinic acid] | – | – |
| 17.2 °C | 7.95 °C | – | COc1c(C(N)=O)ccc2c1nc(-c1c(F)cc(F)cc1C(=O)O)n2CCn1c(-c2c(F)cc(F)cc2C(=O)O)nc2c(OC)c(C(N)=O)ccc21 [Example 16, 2,2′-(Ethane-1,2-diylbis(5-carbamoyl-4-methoxy-1H-benzo[d]imidazole-1,2-diyl))bis(3,5-difluorobenzoic acid)] | – | – |
| 5.44 °C | 0.94 °C | – | COc1c(C(N)=O)ccc2c1nc(-c1ccccc1-c1nn[nH]n1)n2CCn1c(-c2ccccc2-c2nn[nH]n2)nc2c(OC)c(C(N)=O)ccc21 [Example 6, 1,1′-(Ethane-1,2-diyl)bis(2-(2-(2H-tetrazol-5-yl)phenyl)-4-methoxy-1H-benzo[d]imidazole-5-carboxamide)] | – | – |
| 13.1 °C | 0.88 °C | – | COc1c(C(N)=O)ccc2c1nc(-c1c(F)cc(F)cc1-c1n[nH]c(=O)o1)n2CCn1c(-c2c(F)cc(F)cc2-c2n[nH]c(=O)o2)nc2c(OC)c(C(N)=O)ccc21 [Example 44, 1,1′-(Ethane-1,2-diyl)bis(2-(2,4-difluoro-6-(5-oxo-4,5-dihydro-1,3,4-oxadiazol-2-yl)phenyl)-4-methoxy-1H-benzo[d]imidazole-5-carboxamide)] | – | – |
| 22.2 °C | 9.87 °C | – | COc1c(C(N)=O)ccc2c1nc(-c1c(F)cc(F)cc1-c1nn[nH]n1)n2CCn1c(-c2c(F)cc(F)cc2-c2nn[nH]n2)nc2c(OC)c(C(N)=O)ccc21 [Example 43, 1,1′-(Ethane-1,2-diyl)bis(2-(2,4-difluoro-6-(2H-tetrazol-5-yl)phenyl)-4-methoxy-1H-benzo[d]imidazole-5-carboxamide)] | – | – |
| 6.04 °C | 1.33 °C | – | NC(=O)c1ccc2c(c1)nc(-c1ccccc1-c1nn[nH]n1)n2CCn1c(-c2ccccc2-c2nnn[nH]2)nc2cc(C(N)=O)ccc21 [Example 5, 2-(2-(1H-Tetrazol-5-yl)phenyl)-1-(2-(2-(2-(2H-tetrazol-5-yl)phenyl)-5-carbamoyl-1H-benzo[d]imidazol-1-yl)ethyl)-1H-benzo[d]imidazole-5-carboxamide] | – | – |
| 26.4 °C | 12.5 °C | – | COc1c(C(N)=O)ccc2c1nc(-c1c(F)cc(Cl)cc1-c1n[nH]c(=O)o1)n2CCn1c(-c2c(F)cc(Cl)cc2-c2n[nH]c(=O)o2)nc2c(OC)c(C(N)=O)ccc21 [Example 50, 1,1′-(Ethane-1,2-diyl)bis(2-(4-chloro-2-fluoro-6-(5-oxo-4,5-dihydro-1,3,4-oxadiazol-2-yl)phenyl)-4-methoxy-1H-benzo[d]imidazole-5-carboxamide)] | – | – |
| 0.49 °C | -2.39 °C | – | COc1c(C(N)=O)ccc2c1nc(-c1ccc(Cl)cc1C(=O)O)n2C/C=C/Cn1c(-c2ccc(Cl)cc2C(=O)O)nc2c(OC)c(C(N)=O)ccc21 [Example 34, (E)-6,6′-(But-2-ene-1,4-diylbis(5-carbamoyl-4-methoxy-1H-benzo[d]imidazole-1,2-diyl))bis(3-chlorobenzoic acid)] | – | – |
| 5.24 °C | 2.04 °C | – | COc1c(C(N)=O)ccc2c1nc(-c1cccc(Br)c1C(=O)O)n2CCn1c(-c2cccc(Br)c2C(=O)O)nc2c(OC)c(C(N)=O)ccc21 [Example 36, 6,6′-(Ethane-1,2-diylbis(5-carbamoyl-4-methoxy-1H-benzo[d]imidazole-1,2-diyl))bis(2-bromobenzoic acid)] | – | – |
| 29.2 °C | 15 °C | – | COc1c(C(N)=O)ccc2c1nc(-c1c(Cl)cccc1-c1nn[nH]n1)n2CCn1c(-c2c(Cl)cccc2-c2nn[nH]n2)nc2c(OC)c(C(N)=O)ccc21 (single isomer, unassigned) [Example 23, 1,1′-(Ethane-1,2-diyl)bis(2-(2-chloro-6-(2H-tetrazol-5-yl)phenyl)-4-methoxy-1H-benzo[d]imidazole-5-carboxamide)] | – | – |
| 1.24 °C | -0.34 °C | – | COc1c(C(N)=O)ccc2c1nc(-c1c(F)cc(Cl)cc1Br)n2CCn1c(-c2c(F)cc(Cl)cc2Br)nc2c(OC)c(C(N)=O)ccc21 [Example 45, 1,1′-(Ethane-1,2-diyl)bis(2-(2-bromo-4-chloro-6-fluorophenyl)-4-methoxy-1H-benzo[d]imidazole-5-carboxamide)] | – | – |
| 11.3 °C | 5.06 °C | – | COc1c(C(N)=O)ccc2c1nc(-c1ccc(Cl)cc1-c1nn[nH]n1)n2CCn1c(-c2ccc(Cl)cc2-c2nn[nH]n2)nc2c(OC)c(C(N)=O)ccc21 [Example 9, 1,1′-(Ethane-1,2-diyl)bis(2-(4-chloro-2-(2H-tetrazol-5-yl)phenyl)-4-methoxy-1H-benzo[d]imidazole-5-carboxamide)] | – | – |
| 22.1 °C | 10.6 °C | – | COc1c(C(N)=O)ccc2c1nc(-c1c(F)cc(Cl)cc1C(=O)O)n2CCn1c(-c2c(F)cc(Cl)cc2C(=O)O)nc2c(OC)c(C(N)=O)ccc21 [Example 11, 2,2′-(ethane-1,2-diylbis(5-carbamoyl-4-methoxy-1H-benzo[d]imidazole-1,2-diyl))bis(5-chloro-3-fluorobenzoic acid)] | – | – |
| -0.08 °C | -3.16 °C | – | COc1c(C(N)=O)ccc2c1nc(-c1ccc(Cl)cc1-c1cn[nH]n1)n2CCn1c(-c2ccc(Cl)cc2-c2cn[nH]n2)nc2c(OC)c(C(N)=O)ccc21 [Example 24, 1,1′-(Ethane-1,2-diyl)bis(2-(4-chloro-2-(2H-1,2,3-triazol-4-yl)phenyl)-4-methoxy-1H-benzo[d]imidazole-5-carboxamide)] | – | – |
| – | – | −0.07 °C | NC(=O)c1ccc2c(c1)nc(-c1c(Br)cccc1C(=O)O)n2CCn1c(-c2c(Br)cccc2C(=O)O)nc2cc(C(N)=O)ccc21 (single isomer, unassigned) [Example 29.1, 2,2′-(Ethane-1,2-diylbis(5-carbamoyl-1H-benzo[d]imidazole-1,2-diyl))bis(3-bromobenzoic acid)] | – | – |
| 4.06 °C | 1.17 °C | – | CCc1ccc(-c2nc3c(OC)c(C(N)=O)ccc3n2CCn2c(-c3ccc(CC)cc3C(=O)O)nc3c(OC)c(C(N)=O)ccc32)c(C(=O)O)c1 [Example 33, 6,6′-(Ethane-1,2-diylbis(5-carbamoyl-4-methoxy-1H-benzo[d]imidazole-1,2-diyl))bis(3-ethylbenzoic acid)] | – | – |
| – | – | – | COc1c(C(N)=O)ccc2c1nc(-c1cc(F)c(F)cc1C(=O)O)n2CCn1c(-c2cc(F)c(F)cc2C(=O)O)nc2c(OC)c(C(N)=O)ccc21 [Example 15, 6,6′-(Ethane-1,2-diylbis(5-carbamoyl-4-methoxy-1H-benzo[d]imidazole-1,2-diyl))bis(3,4-difluorobenzoic acid)] | 4.78 °C | -0.91 °C |
| 3.99 °C | 0.51 °C | – | COc1c(C(N)=O)ccc2c1nc(-c1ccc(Cl)cc1-c1noc(=O)[nH]1)n2CCn1c(-c2ccc(Cl)cc2-c2noc(=O)[nH]2)nc2c(OC)c(C(N)=O)ccc21 [Example 32, 1,1′-(Ethane-1,2-diyl)bis(2-(4-chloro-2-(5-oxo-4,5-dihydro-1,2,4-oxadiazol-3-yl)phenyl)-4-methoxy-1H-benzo[d]imidazole-5-carboxamide)] | – | – |
| 3.69 °C | -3 °C | – | COc1c(C(N)=O)cc(F)c2c1nc(-c1ccc(Cl)cc1C(=O)O)n2CCn1c(-c2ccc(Cl)cc2C(=O)O)nc2c(OC)c(C(N)=O)cc(F)c21 [Example 20, 6,6′-(Ethane-1,2-diylbis(5-carbamoyl-7-fluoro-4-methoxy-1H-benzo[d]imidazole-1,2-diyl))bis(3-chlorobenzoic acid)] | – | – |
